Source: publication PMC10641817, “Ligand Sulfur Oxidation State Progressively Alters Galectin-3-Ligand Complex Conformations To Induce Affinity-Influencing Hydrogen Bonds” (Journal of Medicinal Chemistry, 2023)
Several values for one entry are separate records, joined by “and”; a condition that tells them apart may be missing. Identical values can stand only once.

Experiments:
[1] = biological target: T1, galectin-3C (the C-terminal domain of galectin-3) (Homo sapiens, UniProt P17931); test: isothermal titration calorimetry (ITC) with galectin-3C; assay type: binding; conditions: 301 K
T1 construct: galectin-3C (the C-terminal domain of galectin-3)
T1 sequence (P17931 118-248 limits assumed): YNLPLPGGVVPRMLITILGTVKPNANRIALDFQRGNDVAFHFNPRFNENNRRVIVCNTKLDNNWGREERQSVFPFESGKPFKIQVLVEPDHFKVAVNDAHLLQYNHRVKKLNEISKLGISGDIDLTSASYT
Experimental: Stock solutions of the ligands were prepared in a buffer at 5 mM. The ligands were diluted with buffer to concentrations between 2 and 3 mM. […] All thermograms were integrated using NITPIC, the titration curves were fitted using SEDPHAT with error estimates using the automatic confidence interval search with projection method, and all figures were made in GUSSI.

galectin-3 R144K = galectin-3 R144K (Homo sapiens, UniProt P17931, R144K); test: competitive fluorescence polarization assay, galectin-3 R144K mutant; assay type: binding
Sequence of galectin-3 R144K (P17931 whole entry R144K): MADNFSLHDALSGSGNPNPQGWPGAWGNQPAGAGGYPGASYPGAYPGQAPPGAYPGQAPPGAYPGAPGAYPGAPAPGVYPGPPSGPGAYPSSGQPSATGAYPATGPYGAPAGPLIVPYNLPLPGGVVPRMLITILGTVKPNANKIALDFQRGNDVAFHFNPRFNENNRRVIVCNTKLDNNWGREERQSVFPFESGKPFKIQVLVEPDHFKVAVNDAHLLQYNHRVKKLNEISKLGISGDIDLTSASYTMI
Experimental: (§1) Fluorescence polarization experiments were carried out either with a POLARStar plate reader and FLUOstar Galaxy software or with a PheraStarFS plate reader and PHERAstar Mars version 2.10 R3 software (BMG, Offenburg, Germany). The dissociation constant (Kd) values were determined in PBS as described earlier.[13],[18] Compounds were dissolved in neat DMSO at 20 mM and diluted in PBS to 3–6 different concentrations to be tested in duplicate. Average Kd values and SEMs were calculated from 2 to 8 single-triple point measurements showing between 20 and 80% inhibition.

galectin-3 R144S = galectin-3 R144S (Homo sapiens, UniProt P17931, R144S); test: competitive fluorescence polarization assay, galectin-3 R144S mutant; assay type: binding
Sequence of galectin-3 R144S (P17931 whole entry R144S): as the sequence (P17931 whole entry R144K) above, with K144S counted along it
Experimental: as §1

[2] = solubility in attempts at crystallographic structural analyses; assay type: physicochemical; conditions: for crystallography with galectin-3C
Galectin-3 Wild-Type = Galectin-3 Wild-Type (Homo sapiens, UniProt P17931); test: competitive fluorescence polarization assay, galectin-3 wild-type; assay type: binding
Sequence of Galectin-3 Wild-Type (P17931 whole entry): as the sequence (P17931 whole entry R144K) above, with K144R counted along it
Experimental: as §1, with “duplicate.” for “duplicate. Average Kd values and SEMs were calculated from 2 to 8 single-triple point measurements showing between 20 and 80% inhibition.”

[O-][S+](c1ccccc1)c1cn([C@H]2[C@@H](O)[C@@H](CO)O[C@@H](S[C@@H]3O[C@H](CO)[C@@H](O)[C@H](O)[C@H]3O)[C@@H]2O)nn1 (stereo partly drawn) [6b, 3′-Deoxy-3′-[4-phenylsulfinyl-1H-1,2,3-triazol-1-yl] -β-D-galactopyranosyl-1-thio-β-D-glucopyranoside]
Kd [1]: 94.2 µM and 94 µM

Cc1ccc(S[C@@H]2O[C@H](CO)[C@H](O)[C@H](n3cc(S(=O)(=O)c4ccccc4)nn3)[C@H]2O)cc1 [4c, p-Methylphenyl 3-deoxy-3-[4-phenylsulfonyl-1H-1,2,3-triazole-1yl] 1-thio-β-D-galactopyranoside]
Kd (galectin-3 R144K): 250 ± 6 µM
Kd (galectin-3 R144S): 600 ± 80 µM
solubility [2]: insufficient solubility

Cc1ccc(S[C@@H]2O[C@H](CO)[C@H](O)[C@H](n3cc([S+]([O-])c4ccccc4)nn3)[C@H]2O)cc1 (stereo partly drawn) [4b, p-Methylphenyl 3-deoxy-3-[4-phenylsulfinyl-1H-1,2,3-triazole-1yl] 1-thio-β-D-galactopyranoside]
solubility [2]: insufficient solubility
inhibition at the highest tested concentration (Galectin-3 Wild-Type; 2 mM, fluorescence polarization, galectin-3): b Weak inhibition at the highest tested concentration of 4b (2 mM) did not allow for accurate determination of the Kd value.
Kd (Galectin-3 Wild-Type; Table 1, galectin-3 wild-type, fluorescence polarization in PBS): > 600 µM

Cc1ccc(S[C@@H]2O[C@H](CO)[C@H](O)[C@H](n3cc(Sc4ccccc4)nn3)[C@H]2O)cc1 [4a, p-Methylphenyl 3-deoxy-3-[4-phenylsulfane-1H-1,2,3-triazol-1-yl] 1-thio-β-D-galactopyranoside]
solubility [2]: insufficient solubility
